From ChEMBL document CHEMBL4334438, “Discovery of novel glycogen synthase kinase-3α inhibitors: Structure-based virtual screening, preliminary SAR and biological evaluation for treatment of acute myeloid leukemia” (Eur J Med Chem, 2019)

What was measured:
[1] = target: Serine/threonine-protein kinase VRK2 (Homo sapiens) (UniProt Q86Y07); test: Inhibition of human VRK2 (1 to 336 residues) assessed as residual activity at 1 uM using casein as substrate measured after 40 mins in presence of [gamma33P]ATP by scintillation counting method relative to control
Sequence of Serine/threonine-protein kinase VRK2 (Homo sapiens) (Q86Y07 whole entry, the tested form may be a part): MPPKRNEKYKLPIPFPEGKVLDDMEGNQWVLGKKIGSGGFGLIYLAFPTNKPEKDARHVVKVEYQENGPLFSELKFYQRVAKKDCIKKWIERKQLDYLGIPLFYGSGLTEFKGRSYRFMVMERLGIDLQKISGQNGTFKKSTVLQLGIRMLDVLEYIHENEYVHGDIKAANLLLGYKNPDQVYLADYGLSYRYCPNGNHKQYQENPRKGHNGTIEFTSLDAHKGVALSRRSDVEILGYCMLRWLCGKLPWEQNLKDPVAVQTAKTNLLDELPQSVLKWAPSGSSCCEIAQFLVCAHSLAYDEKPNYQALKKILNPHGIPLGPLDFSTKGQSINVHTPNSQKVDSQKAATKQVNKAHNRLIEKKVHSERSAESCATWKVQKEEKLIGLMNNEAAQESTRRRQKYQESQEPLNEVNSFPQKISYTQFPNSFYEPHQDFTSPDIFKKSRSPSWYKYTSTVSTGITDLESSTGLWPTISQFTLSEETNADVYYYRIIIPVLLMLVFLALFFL

[2] = target: Insulin-like growth factor 1 receptor (Homo sapiens) (UniProt P08069); test: Inhibition of human IGF1R (959 to end residues) assessed as residual activity at 1 uM using KKKSPGEYVNIEFG as substrate after 40 mins by [gamma-33ATP] radiometric assay relative to control
Sequence of Insulin-like growth factor 1 receptor (Homo sapiens) (P08069 31-736 limits assumed): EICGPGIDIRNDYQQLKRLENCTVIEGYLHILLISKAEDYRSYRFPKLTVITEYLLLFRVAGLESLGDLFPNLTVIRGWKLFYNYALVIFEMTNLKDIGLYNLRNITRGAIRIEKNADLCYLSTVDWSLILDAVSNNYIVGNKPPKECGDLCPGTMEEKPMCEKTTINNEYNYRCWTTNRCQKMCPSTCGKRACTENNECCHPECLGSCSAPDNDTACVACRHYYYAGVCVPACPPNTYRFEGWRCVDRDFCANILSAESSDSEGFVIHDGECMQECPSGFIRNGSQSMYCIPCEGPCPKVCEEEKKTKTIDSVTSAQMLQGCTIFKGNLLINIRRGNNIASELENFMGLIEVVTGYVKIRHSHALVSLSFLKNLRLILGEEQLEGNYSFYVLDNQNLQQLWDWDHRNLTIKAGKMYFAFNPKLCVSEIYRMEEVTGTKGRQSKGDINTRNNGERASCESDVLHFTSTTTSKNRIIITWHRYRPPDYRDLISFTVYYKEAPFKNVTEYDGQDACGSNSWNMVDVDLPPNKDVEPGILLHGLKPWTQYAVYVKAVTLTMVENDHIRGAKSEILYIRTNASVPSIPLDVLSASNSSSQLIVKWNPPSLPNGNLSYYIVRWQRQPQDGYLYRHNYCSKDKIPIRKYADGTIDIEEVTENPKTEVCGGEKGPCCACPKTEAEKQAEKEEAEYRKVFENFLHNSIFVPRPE
Sequence of Insulin-like growth factor 1 receptor (Homo sapiens) (P08069 741-1367 limits assumed): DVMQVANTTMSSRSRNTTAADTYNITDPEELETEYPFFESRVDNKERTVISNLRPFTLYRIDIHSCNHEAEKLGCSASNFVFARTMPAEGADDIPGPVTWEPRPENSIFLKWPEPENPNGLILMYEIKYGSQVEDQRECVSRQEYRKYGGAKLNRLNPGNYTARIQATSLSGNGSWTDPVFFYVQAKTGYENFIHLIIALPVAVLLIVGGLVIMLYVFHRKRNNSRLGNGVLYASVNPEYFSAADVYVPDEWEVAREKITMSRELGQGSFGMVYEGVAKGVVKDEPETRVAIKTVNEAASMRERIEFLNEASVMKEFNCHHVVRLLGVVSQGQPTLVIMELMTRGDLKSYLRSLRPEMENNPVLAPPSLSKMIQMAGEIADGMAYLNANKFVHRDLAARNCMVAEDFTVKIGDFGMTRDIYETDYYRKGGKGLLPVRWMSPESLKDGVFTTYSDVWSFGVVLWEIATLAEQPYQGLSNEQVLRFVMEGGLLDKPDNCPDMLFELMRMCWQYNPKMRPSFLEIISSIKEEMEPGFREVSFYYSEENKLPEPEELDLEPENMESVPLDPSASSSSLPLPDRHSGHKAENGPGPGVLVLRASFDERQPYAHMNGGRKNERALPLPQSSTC

[3] = target: FKBP12A/mTOR (Homo sapiens) (UniProt P62942+P42345); test: Inhibition of recombinant full length human mTOR/FKBP12 assessed as residual activity at 1 uM measured after 40 mins in presence of [gamma33P]ATP by scintillation counting based radiometry assay relative to control; format: protein-complex assay
Sequence of FKBP12A/mTOR (Homo sapiens) (P62942 2-108 limits assumed, other chains not shown): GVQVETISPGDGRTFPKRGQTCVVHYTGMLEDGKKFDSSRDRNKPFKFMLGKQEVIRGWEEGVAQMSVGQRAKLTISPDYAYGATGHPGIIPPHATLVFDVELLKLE

[4] = test system: Angiopoietin-1 receptor (Homo sapiens), Q02763 [Q939H,Q940H]; test: Inhibition of human Tie2 Q939H/Q940H mutant (771 to end residues) assessed as residual activity at 1 uM using poly(Glu, Tyr) 4:1 as substrate measured after 40 mins in presence of [gamma33P]ATP by scintillation counting method relative to control
[5] = test system: Discoidin domain-containing receptor 2 (Homo sapiens), Q16832 [UNDEFINED MUTATION]; test: Inhibition of recombinant human DDR2 S642A mutant (467 to end residues) assessed as residual activity at 1 uM using KKSRGDYMTMQIG as substrate at 40 mins in presence of [gamma-33ATP] by scintillation counting based radiometry assay relative to control
Sequence of Discoidin domain-containing receptor 2 (Homo sapiens), Q16832 [UNDEFINED MUTATION] (Q16832 whole entry, looked up, stated change not applied, the tested form may be a part): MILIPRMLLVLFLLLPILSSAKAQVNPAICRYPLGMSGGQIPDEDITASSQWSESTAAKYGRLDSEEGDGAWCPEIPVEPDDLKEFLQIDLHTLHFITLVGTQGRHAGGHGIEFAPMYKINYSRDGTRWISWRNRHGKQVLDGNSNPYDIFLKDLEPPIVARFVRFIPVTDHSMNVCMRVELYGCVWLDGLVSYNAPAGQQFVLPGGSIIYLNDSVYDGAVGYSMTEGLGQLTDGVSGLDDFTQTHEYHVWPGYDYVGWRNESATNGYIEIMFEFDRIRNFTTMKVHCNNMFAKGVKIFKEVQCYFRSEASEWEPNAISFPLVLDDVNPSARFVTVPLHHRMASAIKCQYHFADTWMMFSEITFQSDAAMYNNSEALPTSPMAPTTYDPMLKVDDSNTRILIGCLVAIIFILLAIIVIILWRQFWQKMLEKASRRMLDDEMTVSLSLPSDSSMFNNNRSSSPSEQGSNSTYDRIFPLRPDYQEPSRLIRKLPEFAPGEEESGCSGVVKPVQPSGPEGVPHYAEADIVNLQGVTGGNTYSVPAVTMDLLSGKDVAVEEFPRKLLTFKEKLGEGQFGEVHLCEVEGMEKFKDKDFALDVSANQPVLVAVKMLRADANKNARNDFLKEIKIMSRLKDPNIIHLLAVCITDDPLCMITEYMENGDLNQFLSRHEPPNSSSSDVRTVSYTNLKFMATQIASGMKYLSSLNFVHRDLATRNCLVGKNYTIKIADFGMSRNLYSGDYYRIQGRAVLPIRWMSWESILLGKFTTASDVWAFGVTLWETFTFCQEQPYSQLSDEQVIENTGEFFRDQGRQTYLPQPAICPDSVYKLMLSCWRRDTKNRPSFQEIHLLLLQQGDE

[6] = target: Serine/threonine-protein kinase 32B (Homo sapiens) (UniProt Q9NY57); test: Inhibition of recombinant full-length human STK32B at 1 uM assessed as residual activity at 1 uM using casein as substrate measured after 120 mins in presence of [gamma33P]ATP by scintillation counting method relative to control
Sequence of Serine/threonine-protein kinase 32B (Homo sapiens) (Q9NY57 whole entry, the tested form may be a part): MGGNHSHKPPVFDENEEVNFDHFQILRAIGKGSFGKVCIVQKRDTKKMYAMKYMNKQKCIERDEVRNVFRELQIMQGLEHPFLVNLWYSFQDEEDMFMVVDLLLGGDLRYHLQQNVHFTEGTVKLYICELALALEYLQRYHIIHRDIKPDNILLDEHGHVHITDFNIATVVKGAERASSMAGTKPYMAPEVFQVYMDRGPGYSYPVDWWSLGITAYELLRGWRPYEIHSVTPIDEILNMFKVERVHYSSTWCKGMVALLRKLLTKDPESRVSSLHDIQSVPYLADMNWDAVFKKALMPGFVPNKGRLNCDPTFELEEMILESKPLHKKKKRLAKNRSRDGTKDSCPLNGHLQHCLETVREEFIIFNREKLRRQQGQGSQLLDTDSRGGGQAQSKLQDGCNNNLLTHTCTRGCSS

[7] = target: TRAF2 and NCK-interacting protein kinase (Homo sapiens) (UniProt Q9UKE5); test: Inhibition of human TNIK (1 to 367 residues) assessed as residual activity at 1 uM using RLGRDKYKTLRQIRQ as substrate measured after 40 mins in presence of [gamma33P]ATP by scintillation counting method relative to control
[8] = test system: Hepatocyte growth factor receptor (Homo sapiens), P08581 [Y1230C]; test: Inhibition of recombinant human MET A1209G/V1290L/Y1248C mutant (974 to end residues) assessed as residual activity at 1 uM using KKKGQEEEYVFIE as substrate incubated for 40 mins in presence of [gamma-33ATP by scintillation counting based radiometry assay relative to control
[9] = test system: Mast/stem cell growth factor receptor Kit (Homo sapiens), P10721 [D816V]; test: Inhibition of recombinant human C-Kit D816V mutant (544 to end residues) assessed as residual activity at 1 uM poly(Glu, Tyr) 4:1 as substrate incubated 40 mins in presence of [gamma-33ATP] by scintillation counting based radiometry assay relative to control
[10] = target: Cyclin-dependent kinase 5/CDK5 activator 1 (Homo sapiens) (UniProt Q00535+Q15078); test: Inhibition of recombinant full length human CDK5/p25 assessed as residual activity at 1 uM using histone H1 as substrate incubated for 40 mins in presence of [gamma-33ATP] by scintillation counting based radiometry assay relative to control; format: protein-complex assay
[11] = target: Serine/threonine-protein kinase PAK 3 (Homo sapiens) (UniProt O75914); test: Inhibition of recombinant full-length human PAK3 assessed as residual activity at 1 uM using RRRLSFAEPG as substrate measured after 40 mins in presence of [gamma33P]ATP by scintillation counting method relative to control
[12] = target: Aurora kinase C (Homo sapiens) (UniProt Q9UQB9); test: Inhibition of recombinant human Aurora C (35 to end residues) assessed as residual activity at 1 uM using AKRRRLSSLRA as substrate incubated for 40 mins in presence of [gamma-33ATP] by scintillation counting based radiometry assay relative to control
Sequence of Aurora kinase C (Homo sapiens) (Q9UQB9 whole entry, the tested form may be a part, canonical isoform): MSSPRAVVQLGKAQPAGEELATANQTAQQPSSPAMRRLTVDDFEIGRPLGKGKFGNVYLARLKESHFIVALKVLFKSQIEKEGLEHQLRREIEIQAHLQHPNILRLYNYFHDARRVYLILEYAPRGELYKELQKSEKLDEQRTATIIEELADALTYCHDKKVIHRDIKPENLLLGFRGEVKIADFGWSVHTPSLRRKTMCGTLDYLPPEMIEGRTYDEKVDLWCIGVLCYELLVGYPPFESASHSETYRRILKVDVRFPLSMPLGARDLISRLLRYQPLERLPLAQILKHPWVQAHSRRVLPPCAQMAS

[13] = test system: Phosphorylase b kinase gamma catalytic chain, liver/testis isoform (Homo sapiens), P15735 [F290L]; test: Inhibition of recombinant human PhKgamma2 F290L mutant (1 to 301 residues) assessed as residual activity at 1 uM using KKLNRTLSFAEPG as substrate measured after 40 mins in presence of [gamma33P]ATP by scintillation counting method relative to control
[14] = target: Serine/threonine-protein kinase/endoribonuclease IRE1 (Homo sapiens) (UniProt O75460); test: Inhibition of human IRE1 activated (465 to end residues) assessed as residual activity at 1 uM using myelin basic protein as substrate after 40 mins by [gamma-33ATP] radiometric assay relative to control
[15] = target: Tyrosine-protein kinase JAK3 (Homo sapiens) (UniProt P52333); test: Inhibition of human JAK3 (781 to end residues) assessed as residual activity at 1 uM using GGEEEEYFELVKKKK as substrate after 40 mins by [gamma-33ATP] radiometric assay relative to control
[16] = target: Glycogen synthase kinase-3 alpha (Homo sapiens, UniProt P49840); test: Inhibition of human GSK-3alpha S449A mutant (2 to end residues) using phospho GS2 peptide as substrate after 40 mins in presence of [gamma-33ATP] by scintillation counting method
Homo sapiens = species: Homo sapiens; test: Inhibition of recombinant full length human Aurora A I31F mutant assessed as residual activity at 1 uM using LRRASLG as substrate incubated for 40 mins in presence of [gamma-33ATP] by scintillation counting based radiometry assay relative to control
[17] = target: Wee1-like protein kinase 2 (Homo sapiens) (UniProt P0C1S8); test: Inhibition of recombinant full-length human WEE1b at 1 uM assessed as residual activity at 1 uM using LSNLYHQGKFLQTFCGSPLYRRR as substrate measured after 120 mins in presence of [gamma33P]ATP by scintillation counting method relative to control
[18] = test system: Tyrosine-protein kinase ABL1 (Homo sapiens), P00519 [Y253F]; test: Inhibition of human ABL1 Y253F mutant (27 to end residues) assessed as residual activity at 1 uM using EAIYAAPFAKKK as substrate incubated for 40 mins in presence of [gamma-33ATP] by scintillation counting based radiometry assay relative to control
[19] = target: Tau-tubulin kinase 1 (Homo sapiens) (UniProt Q5TCY1); test: Inhibition of human TTBK1 (1 to 479 residues) assessed as residual activity at 1 uM using Casein as substrate measured after 40 mins in presence of [gamma33P]ATP by scintillation counting method relative to control
Sequence of Tau-tubulin kinase 1 (Homo sapiens) (Q5TCY1 whole entry, the tested form may be a part): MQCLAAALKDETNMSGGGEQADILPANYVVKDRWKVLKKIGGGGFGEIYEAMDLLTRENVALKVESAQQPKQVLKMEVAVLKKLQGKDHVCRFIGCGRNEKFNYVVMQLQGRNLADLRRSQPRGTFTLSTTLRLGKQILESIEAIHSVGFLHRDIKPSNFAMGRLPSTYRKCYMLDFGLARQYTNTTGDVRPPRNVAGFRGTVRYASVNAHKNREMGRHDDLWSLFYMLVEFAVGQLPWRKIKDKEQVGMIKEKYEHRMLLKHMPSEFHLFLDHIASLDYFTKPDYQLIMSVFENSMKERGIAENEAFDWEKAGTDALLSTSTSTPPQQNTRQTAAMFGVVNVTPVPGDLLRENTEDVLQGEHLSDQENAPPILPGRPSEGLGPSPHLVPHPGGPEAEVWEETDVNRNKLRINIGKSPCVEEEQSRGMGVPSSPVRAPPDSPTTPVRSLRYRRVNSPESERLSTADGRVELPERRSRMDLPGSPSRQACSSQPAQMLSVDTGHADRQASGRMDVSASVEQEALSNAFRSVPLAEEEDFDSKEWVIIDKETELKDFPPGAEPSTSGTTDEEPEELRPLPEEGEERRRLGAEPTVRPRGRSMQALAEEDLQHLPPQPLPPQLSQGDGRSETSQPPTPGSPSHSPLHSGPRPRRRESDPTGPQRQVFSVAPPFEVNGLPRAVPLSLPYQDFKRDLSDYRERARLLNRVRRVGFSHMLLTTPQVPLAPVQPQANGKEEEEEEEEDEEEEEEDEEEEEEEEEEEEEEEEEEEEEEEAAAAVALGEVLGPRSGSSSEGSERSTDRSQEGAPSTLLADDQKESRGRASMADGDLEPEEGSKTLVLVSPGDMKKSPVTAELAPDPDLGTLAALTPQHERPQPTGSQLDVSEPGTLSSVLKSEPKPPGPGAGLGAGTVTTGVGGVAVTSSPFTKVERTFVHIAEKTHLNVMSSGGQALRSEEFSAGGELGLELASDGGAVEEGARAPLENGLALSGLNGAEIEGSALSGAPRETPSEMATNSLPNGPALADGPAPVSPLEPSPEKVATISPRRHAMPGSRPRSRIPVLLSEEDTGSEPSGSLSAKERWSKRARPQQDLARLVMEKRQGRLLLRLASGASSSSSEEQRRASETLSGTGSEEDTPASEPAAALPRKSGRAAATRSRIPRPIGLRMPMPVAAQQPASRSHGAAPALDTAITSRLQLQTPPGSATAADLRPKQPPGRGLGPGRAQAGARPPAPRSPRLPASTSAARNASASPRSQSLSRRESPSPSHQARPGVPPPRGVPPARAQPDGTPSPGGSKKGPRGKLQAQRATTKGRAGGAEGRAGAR

[20] = target: Mitogen-activated protein kinase 8 (Homo sapiens) (UniProt P45983); test: Inhibition of human JNK1alpha1 assessed as residual activity at 1 uM using ATF2 as substrate after 40 mins by [gamma-33ATP] radiometric assay relative to control
[21] = target: Dual specificity mitogen-activated protein kinase kinase 3 (Homo sapiens) (UniProt P46734); test: Inhibition of recombinant human MKK3 assessed as residual activity at 1 uM by scintillation counting based radiometry assay relative to control

SMILES	Activity [1]	Activity [2]	Activity [3]	Activity [4]	Activity [5]	Activity [6]	Activity [7]	Activity [8]	Activity [9]	Activity [10]	Activity [11]	Activity [12]	Activity [13]	Activity [14]	Activity [15]	IC50 [16]	Activity (Homo sapiens)	Activity [17]	Activity [18]	Activity [19]	other results
C=CCOC(=O)c1cc(-c2ccc(/C=C3/NC(=S)NC3=O)o2)ccc1Cl	100%	88%	97%	107%	105%	86%	52%	114%	97%	58%	102%	104%	104%	91%	104%	33 nM	114%	93%	88%	114%	Activity [20]: 99%; Activity [21]: 90%
N=C1NC(=O)/C(=C\c2ccc(-c3cccc([N+](=O)[O-])c3)o2)S1	101%	108%	107%	113%	108%	102%	74%	98%	94%	75%	95%	109%	107%	79%	102%	49 nM	101%	106%	94%	104%	Activity [20]: 101%; Activity [21]: 83%
